This is an account of results in patent US8436011B2, “Pyridinopyridinone derivatives, preparation thereof and therapeutic use thereof” (Sanofi, priority 2008, dated 2013).

Several values for one entry are separate records, joined by “and”; a condition that tells them apart may be missing. Equal entries are not always repeated. Structures can show the parent of a compound that is named as a salt.

`CCn1c(N)c(C(=O)NC)c(=O)c2ccc(-c3ccc(CC(=O)Nc4ccccc4)cc3)nc21` returned a melting point of 299 °C.
As for `CCn1c(N)c(C(=O)NC)c(=O)c2ccc(-c3ccc(CC(=O)NC4CCCC4)cc3)nc21`, the melting point was found to be 300 °C.
In the case of `CCN1CCCC1CN(C)C(=O)Cc1ccc(-c2ccc3c(=O)c(C(=O)NC)c(N)n(CC)c3n2)cc1` (stereo not drawn), the melting point was 138 °C.
For `CCn1c(N)c(C(=O)NC)c(=O)c2ccc(-c3ccc(CC(=O)NCCc4ccccc4)cc3)nc21` the value was 270 °C.
`CCN1CCCC1CNC(=O)Cc1ccc(-c2ccc3c(=O)c(C(=O)NC)c(N)n(CC4CC4)c3n2)cc1` (stereo not drawn): the melting point worked out at 260 °C.
With `CCn1c(N)c(C(=O)NC)c(=O)c2ccc(-c3ccc(CC(=O)Nc4ccncc4)cc3)nc21` (as salt: HCl) the figure was 250 °C.
With `CCn1c(N)c(C(=O)NC)c(=O)c2ccc(-c3ccc(CC(=O)NCCc4ccccn4)cc3)nc21` (as salt: HCl), the melting point is 248 °C.
For the compound `CNC(=O)c1c(N)n(CCCOC)c2nc(-c3ccc(CC(=O)Nc4ccccn4)cc3)ccc2c1=O` (as salt: HCl), the melting point was 230 °C.
As to `CCn1c(N)c(C(=O)NC)c(=O)c2ccc(-c3ccc(CC(=O)Nc4cccnc4)cc3)nc21` (as salt: HCl) [compound 3, 2-amino-1-ethyl-N-methyl-4-oxo-7-{4-[2-oxo-2-(pyrid-3-ylamino)ethyl]-phenyl}-1,4-dihydro-1,8-naphthyridine-3-carboxamide], the melting point stood at 270 °C.
With `CCn1c(N)c(C(=O)NC)c(=O)c2ccc(-c3ccc(CC(=O)Nc4ccccn4)cc3)nc21` (as salt: HCl) [compound 4, 2-amino-1-ethyl-N-methyl-4-oxo-7-{4-[2-oxo-2-(pyrid-2-ylamino)ethyl]-phenyl}-1,4-dihydro-1,8-naphthyridine-3-carboxamide] the figure was 258 °C; with `CCn1c(N)c(C(=O)NC)c(=O)c2ccc(-c3ccc(CC(=O)NCc4ccncc4)cc3)nc21` (as salt: HCl) [compound 7, 2-amino-1-ethyl-N-methyl-4-oxo-7-(4-{2-oxo-2-[(pyrid-4-ylmethyl)amino]-ethyl}phenyl)-1,4-dihydro-1,8-naphthyridine-3-carboxamide], 230 °C; with `CCn1c(N)c(C(=O)NC)c(=O)c2ccc(-c3ccc(CC(=O)NCc4ccccn4)cc3)nc21` (as salt: HCl) [compound 8, 2-amino-1-ethyl-N-methyl-4-oxo-7-(4-{2-oxo-2-[(pyrid-2-ylmethyl)amino]-ethyl}phenyl)-1,4-dihydro-1,8-naphthyridine-3-carboxamide], 268 °C.
For `CCn1c(N)c(C(=O)NC)c(=O)c2ccc(-c3ccc(CC(=O)NCCN4CCOCC4)cc3)nc21` (as salt: HCl) [compound 18, 2-amino-1-ethyl-N-methyl-7-(4-{2-[(2-morpholin-4-ylethyl)amino]-2-oxoethyl}phenyl)-4-oxo-1,4-dihydro-1,8-naphthyridine-3-carboxamide] the value was 220 to 222 °C; for `CCn1c(N)c(C(=O)NC)c(=O)c2ccc(-c3ccc(CC(=O)Nc4ccccn4)cn3)nc21` (as salt: HCl) [compound 19, 2-amino-1-ethyl-N-methyl-4-oxo-7-{5-[2-oxo-2-(pyrid-2-ylamino)-ethyl]pyrid-2-yl}-1,4-dihydro-1,8-naphthyridine-3-carboxamide], 268 to 288 °C.
As for `CCn1c(N)c(C(=O)NC)c(=O)c2ccc(-c3ccc(C(C)C(=O)Nc4ccccn4)cc3)nc21` (stereo not drawn) (as salt: HCl) [compound 20, 2-amino-1-ethyl-N-methyl-7-{4-[1-methyl-2-oxo-2-(pyrid-2-ylamino)ethyl]-phenyl}-4-oxo-1,4-dihydro-1,8-naphthyridine-3-carboxamide], the melting point was found to be 188 °C.
For `CCN1CCOCC1CNC(=O)Cc1ccc(-c2ccc3c(=O)c(C(=O)NC)c(N)n(CC)c3n2)cc1` (stereo not drawn) (as salt: HCl) [compound 22, 2-amino-1-ethyl-7-[4-(2-{[(4-ethylmorpholin-3-yl)methyl]amino}-2-oxoethyl)phenyl]-N-methyl-4-oxo-1,4-dihydro-1,8-naphthyridine-3-carboxamide] the value was 188 to 190 °C and 190 °C; for `CCN1CCOCC1CNC(=O)Cc1ccc(-c2ccc3c(=O)c(C(=O)NC)c(N)n(CC)c3n2)cn1` (stereo not drawn) (as salt: HCl) [compound 23, 2-amino-1-ethyl-7-[6-(2-{[(4-ethylmorpholin-3-yl)methyl]amino}-2-oxoethyl)pyrid-3-yl]-N-methyl-4-oxo-1,4-dihydro-1,8-naphthyridine-3-carboxamide], 199 °C.
For `CCN1CC(F)(F)C[C@H]1CNC(=O)Cc1ccc(-c2ccc3c(=O)c(C(=O)NC)c(N)n(CC)c3n2)cc1` (as salt: HCl) [compound 24, 2-amino-1-ethyl-7-{4-[2-({[(2S)-1-ethyl-4,4-difluoropyrrolidin-2-yl]methyl}-amino)-2-oxoethyl]phenyl}-N-methyl-4-oxo-1,4-dihydro-1,8-naphthyridine-3-carboxamide] the value was 266 °C; for `CCN1CCOCC1CNC(=O)C(C)c1ccc(-c2ccc3c(=O)c(C(=O)NC)c(N)n(CC)c3n2)cc1` (stereo not drawn) (as salt: HCl) [compound 25, 2-amino-1-ethyl-7-[4-(2-{[(4-ethylmorpholin-3-yl)methyl]amino}-1-methyl-2-oxoethyl)phenyl]-N-methyl-4-oxo-1,4-dihydro-1,8-naphthyridine-3-carboxamide], 190 °C.
With `CCN1C[C@H](F)C[C@H]1CNC(=O)Cc1ccc(-c2ccc3c(=O)c(C(=O)NC)c(N)n(CC)c3n2)cc1` (as salt: HCl) [compound 26, 2-amino-1-ethyl-7-{4-[2-({[(2S,4R)-1-ethyl-4-fluoropyrrolidin-2-yl]methyl}-amino)-2-oxoethyl]phenyl}-N-methyl-4-oxo-1,4-dihydro-1,8-naphthyridine-3-carboxamide] the figure was 170 °C; with `CCn1c(N)c(C(=O)NC)c(=O)c2ccc(-c3ccc(CC(=O)NC[C@H]4CCCN4CCF)cn3)nc21` (as salt: HCl) [compound 29, 2-amino-1-ethyl-7-{5-[2-({[(2R)-1-(2-fluoroethyl)pyrrolidin-2-yl]methyl}-amino)-2-oxoethyl]pyrid-2-yl}-N-methyl-4-oxo-1,4-dihydro-1,8-naphthyridine-3-carboxamide], 194 °C.
Turning to `CCn1c(N)c(C(=O)NC)c(=O)c2ccc(-c3ccc(CC(=O)NC[C@H]4CCCN4CC(F)F)cc3)nc21` (as salt: HCl) [compound 31, 2-amino-7-{4-[2-({[(2R)-1-(2,2-difluoroethyl)pyrrolidin-2-yl]methyl}amino)-2-oxoethyl]phenyl}-1-ethyl-N-methyl-4-oxo-1,4-dihydro-1,8-naphthyridine-3-carboxamide], the melting point lay in the range of 214 to 228 °C.
Take `CCn1c(N)c(C(=O)NC)c(=O)c2ccc(-c3ccc(CC(=O)NCC4COCCN4C(C)C)cc3)nc21` (stereo not drawn) (as salt: HCl) [compound 32, 2-amino-1-ethyl-N-methyl-7-{4-[2-({[4-(1-methylethyl)morpholin-3-yl]-methyl}amino)-2-oxoethyl]phenyl}-4-oxo-1,4-dihydro-1,8-naphthyridine-3-carboxamide]: the melting point amounted to 192 °C.
In the case of `CCn1c(N)c(C(=O)NC)c(=O)c2ccc(-c3ccc(CC(=O)NCC4COCCN4C4CC4)cc3)nc21` (stereo not drawn) (as salt: HCl) [compound 33, 2-amino-7-[4-(2-{[(4-cyclopropylmorpholin-3-yl)methyl]amino}-2-oxoethyl)phenyl]-1-ethyl-N-methyl-4-oxo-1,4-dihydro-1,8-naphthyridine-3-carboxamide], the melting point was 250 °C.
For `CCn1c(N)c(C(=O)NC)c(=O)c2ccc(-c3ccc(CC(=O)NC[C@H]4CCCN4CC(F)F)cn3)nc21` (as salt: HCl) [compound 34, 2-amino-7-{5-[2-({[(2R)-1-(2,2-difluoroethyl)pyrrolidin-2-yl]methyl}amino)-2-oxoethyl]pyrid-2-yl}-1-ethyl-N-methyl-4-oxo-1,4-dihydro-1,8-naphthyridine-3-carboxamide] the value was 260 °C; for `CCn1c(N)c(C(=O)NC)c(=O)c2ccc(-c3ccc(CC(=O)NCc4cncn4C)cc3)nc21` (as salt: HCl) [compound 36, 2-amino-1-ethyl-N-methyl-7-[4-(2-{[(1-methyl-1H-imidazol-5-yl)methyl]amino}-2-oxoethyl)phenyl]-4-oxo-1,4-dihydro-1,8-naphthyridine-3-carboxamide], 270 °C; for `CCn1c(N)c(C(=O)NC)c(=O)c2ccc(-c3ccc(CC(=O)NCCc4cccnc4)cc3)nc21` (as salt: HCl) [compound 37, 2-amino-1-ethyl-N-methyl-4-oxo-7-(4-{2-oxo-2-[(2-pyrid-3-ylethyl)amino]-ethyl}phenyl)-1,4-dihydro-1,8-naphthyridine-3-carboxamide], 222 °C.
For `CCn1c(N)c(C(=O)NC)c(=O)c2ccc(-c3ccc(CC(=O)NCCCN4CCOCC4)cc3)nc21` (as salt: HCl) [compound 38, 2-amino-1-ethyl-N-methyl-7-(4-{2-[(3-morpholin-4-ylpropyl)amino]-2-oxoethyl}phenyl)-4-oxo-1,4-dihydro-1,8-naphthyridine-3-carboxamide] the value was 196 °C; for `CCN1CCCC1CNC(=O)Cc1csc(-c2ccc3c(=O)c(C(=O)NC)c(N)n(CC)c3n2)n1` (stereo not drawn) (as salt: HCl) [compound 43, 2-amino-1-ethyl-7-[4-(2-{[(1-ethylpyrrolidin-2-yl)methyl]amino}-2-oxoethyl)-1,3-thiazol-2-yl]-N-methyl-4-oxo-1,4-dihydro-1,8-naphthyridine-3-carboxamide], 228 °C; for `CCN1CCCC1CNC(=O)Cc1ccc(-c2ccc3c(=O)c(C(=O)NC)c(N)n(CC)c3n2)cc1Cl` (stereo not drawn) (as salt: HCl) [compound 57, 2-amino-7-[3-chloro-4-(2-{[(1-ethylpyrrolidin-2-yl)methyl]amino}-2-oxoethyl)phenyl]-1-ethyl-N-methyl-4-oxo-1,4-dihydro-1,8-naphthyridine-3-carboxamide], 228 °C.

A word on the melting point: it is the temperature, or range, at which the solid turns liquid.
